Test results as given in patent US12479823B2, “Compound for use in retinal diseases” (ZHUHAI UNITED LABORATORIES CO., LTD., priority 2018, dated 2025).
Like-named read-outs stand apart in the source and are kept apart here.

How the values were obtained:
[1] = Pharmacokinetics in SD rats, intravenous injection for 5 consecutive days; type: in vivo; details: male, Sprague-Dawley (SD), rat, plasma, 20 mg/kg, 20 mg/kg intravenous daily
Description: Objective: To study 5-day Toxicology of Compounds in SD Rats
Experimental materials: SD rats (male, 200-300 g, 7-9 weeks old, Shanghai Lingchang)
Pharmacokinetic profiles of the compound were tested by intravenous injection in rodents according to the standard protocol. In the study, the candidate compound was prepared as a clear solution, and was administered to SD rats at 20 mg/kg by single intravenous injection for 5 consecutive days. A vehicle for intravenous injection was a 10% hydroxypropyl β-cyclodextrin aqueous solution. Whole blood samples were collected at 0.033, 0.083, 0.25, 0.5, 1, 2, 4, 8, and 24 hours postdose on Day 1 and Day 5 of dosing, centrifuged at 3000 r for 10 min, and separated from supernatant to obtain plasma samples. 15 μL of plasma samples were mixed with 300 μL of acetonitrile precipitated proteins containing an internal standard, and 2 μL of the supernatant was injected by centrifugation. Plasma concentrations were quantified by LC-MS/MS analysis, and pharmacokinetic parameters, such as clearance, half-life, and area under the concentration-time curve, were calculated.

[2] = Pharmacokinetics in cynomolgus monkeys, single intravenous injection; type: in vivo; details: male, cynomolgus monkey, plasma, 1 mg/kg single intravenous injection
Description: Objective: To Study Pharmacokinetics of the Compound in Cynomolgus Monkeys
Experimental material: Cynomolgus Monkeys (male, 2.5-4 kg, greater than or equal to 2 years, Jingang Biotech)
Pharmacokinetic profiles of the compound were tested by intravenous administration in monkeys according to the standard protocol. In the study, the candidate compound was prepared as a clear solution, and was administered to cynomolgus monkeys at 1 mg/kg by single intravenous injection. A vehicle for intravenous injection was a 10% hydroxypropyl ß-cyclodextrin aqueous solution. Whole blood samples were collected at 0.033, 0.083, 0.25, 0.5, 1, 2, 4, 8, 12, and 24 hours, respectively, centrifuged at 3000 r for 10 min, and separated from supernatant to obtain plasma samples. 20 μL of plasma samples were mixed with 400 μL of acetonitrile precipitated proteins containing an internal standard, and 2 μL of the supernatant was injected by centrifugation. Plasma concentrations were quantified by LC-MS/MS analysis, and pharmacokinetic parameters, such as clearance, half-life, and area under the concentration-time curve, etc. were calculated.

[3] = In vitro aldehyde capture capacity test (complexing with nonanal, HPLC at 254 nm)
Description: Objective: dry eye disease is caused by inflammation in eyes, wherein the inflammation may produce aldehydes that will accelerate the inflammation symptoms and worsen the dry eye disease if not eliminated in time. In the experiment, a better compound was selected according to the complexing capacity of the drug and aldehydes in vivo by simulating the in vivo environment.
Procedures: Sulfobutyl-B-cyclodextrin (310 mg) was dissolved in a phosphate buffer (1.25 mL) to prepare a solution.
Nonanal (5.0 mg, 32 μmol, 1.0 eq) and triolein (300 mg) were added to a reaction flask at room temperature, after addition of the prepared solution described above, linoleic acid (300 mg) was added, and finally a dimethyl sulfoxide (0.15 ml) solution containing the compound (32 μmol, 1.0 eq) of the present disclosure was added; the reaction solution was reacted at 20-23° C.
The reaction solution was reacted under stirring for 10 min, 100 min, 200 min, and 300 min respectively, and sampled for high performance liquid chromatography after the solution was stratified after standing for 2 min.
Sampling method: 25 μl of an upper emulsified layer and 50 μl of a lower aqueous phase were sampled by a pipette, and samples were diluted with 1 mL of methanol.
The ultraviolet absorption of the nonanal was weak at 254 nm, so the nonanal had little overall effect on the content of complexed products. Therefore, the percentage contents of complexes at 254 nm under high performance liquid chromatography were compared to observe aldehyde capture and complexing capacities, as shown in FIG. 1 and Table 1:
Taking The compound 7 as an example, after 300 min of reaction, the analytical method for HPLC was XBRIGE 2.5 μm, 3.0*100 mm 5-80CD_XBEH_12 min_0.8.1 cm;
Retention time 6.689 min, 6.787 min, 6.966 min, and 7.102 min were absorption peaks of products complexed with monomolecular aldehyde;
Retention time 8.905 min, 9.010 min, and 9.075 min were absorption peaks of products complexed with bimolecular aldehyde.

[4] = molecular target: T1, CYP2D6 (Homo sapiens, UniProt P10635); test: Inhibition of human liver microsomal cytochrome P450 CYP2D6; type: in vitro ADME; details: human liver microsomes, probe substrate, NADPH
T1 construct: fused human liver microsomes were selected as a CYP450 enzyme source; from tissue; host or cells: pooled ("fused") human liver microsomes
Text: (§1) Objective: To study the inhibitory effect of compounds on human liver microsomal cytochrome P450. Experimental procedures: In the study on inhibition of the compounds on the human liver microsomal cytochrome P450 (CYP1A2, CYP2C9, CYP2C19, CYP2D6 and CYP3A4), fused human liver microsomes were selected as a CYP450 enzyme source. […]

[5] = Corneal and plasma drug concentration after eye drops in rats; type: in vivo
Description: Objective: To Study the Ratio of Corneal to Plasma Drug Concentration After Eye Drops in Rats
Experimental Materials: Male SD Rats, 200-300 g, 7-9 weeks old, Shanghai Lingchang
Experimental procedures: The candidate compound was prepared as a clear solution, and administered to SD rats by eye drops. The vehicle for eye drops was 10% hydroxypropyl β-cyclodextrin aqueous solution, and the drug concentration in the eye drops was 5 mg/mL. Corneal and whole blood samples were collected at 1 and 4 hours, respectively. The corneal samples was homogenized in 15 mM phosphate buffer (PBS): MeoH (2:1, v: v) buffer, the whole blood samples were centrifuged at 3000 r for 10 min, and the supernatant plasma samples were separated. 20 μL of the plasma samples and homogenate samples were mixed with 400 μL of acetonitrile precipitated proteins containing an internal standard, respectively, and 2 μL of the supernatant was injected by centrifugation. The plasma concentrations were quantified by LC-MS/MS analysis; the drug concentrations in the cornea and plasma were measured respectively according to different time points, and the ratio of corneal/plasma concentrations was calculated.

[6] = molecular target: T2, CYP2C9 (Homo sapiens, UniProt P11712); test: Inhibition of human liver microsomal cytochrome P450 CYP2C9; type: in vitro ADME; details: human liver microsomes, probe substrate, NADPH
T2 construct: fused human liver microsomes were selected as a CYP450 enzyme source; from tissue; host or cells: pooled ("fused") human liver microsomes
Text: as §1

[7] = molecular target: T3, CYP3A4 (Homo sapiens, UniProt P08684); test: Inhibition of human liver microsomal cytochrome P450 CYP3A4; type: in vitro ADME; details: human liver microsomes, two probe substrates, NADPH
T3 construct: fused human liver microsomes were selected as a CYP450 enzyme source; from tissue; host or cells: pooled ("fused") human liver microsomes
Text: as §1

T2 sequence (P11712 whole entry, the tested form may be a part): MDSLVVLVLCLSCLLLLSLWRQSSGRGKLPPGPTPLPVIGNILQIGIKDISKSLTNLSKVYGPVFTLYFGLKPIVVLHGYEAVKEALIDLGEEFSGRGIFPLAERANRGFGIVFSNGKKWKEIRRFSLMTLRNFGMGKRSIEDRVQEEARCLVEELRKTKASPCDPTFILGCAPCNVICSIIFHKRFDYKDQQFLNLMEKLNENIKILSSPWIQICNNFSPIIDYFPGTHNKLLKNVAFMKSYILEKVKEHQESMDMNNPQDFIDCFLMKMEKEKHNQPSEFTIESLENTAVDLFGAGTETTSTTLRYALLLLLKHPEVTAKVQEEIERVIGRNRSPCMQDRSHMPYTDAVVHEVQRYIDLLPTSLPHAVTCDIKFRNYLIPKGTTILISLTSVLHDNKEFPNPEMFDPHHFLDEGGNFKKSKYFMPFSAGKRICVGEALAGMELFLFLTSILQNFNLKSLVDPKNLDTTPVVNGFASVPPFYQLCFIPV
T3 sequence (P08684 whole entry, the tested form may be a part): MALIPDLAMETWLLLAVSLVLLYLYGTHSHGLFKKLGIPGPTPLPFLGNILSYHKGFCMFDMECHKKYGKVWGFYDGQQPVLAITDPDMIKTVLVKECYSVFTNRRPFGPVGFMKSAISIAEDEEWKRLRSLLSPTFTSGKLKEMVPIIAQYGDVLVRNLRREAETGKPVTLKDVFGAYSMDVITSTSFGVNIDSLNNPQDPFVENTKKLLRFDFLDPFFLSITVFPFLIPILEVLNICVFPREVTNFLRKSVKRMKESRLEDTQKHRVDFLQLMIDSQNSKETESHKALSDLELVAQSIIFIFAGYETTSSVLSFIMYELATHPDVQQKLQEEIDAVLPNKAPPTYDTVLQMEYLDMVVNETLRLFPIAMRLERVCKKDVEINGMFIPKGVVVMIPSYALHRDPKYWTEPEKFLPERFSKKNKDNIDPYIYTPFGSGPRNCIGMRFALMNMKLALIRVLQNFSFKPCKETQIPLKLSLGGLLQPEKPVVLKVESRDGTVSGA
T1 sequence (P10635 whole entry, the tested form may be a part): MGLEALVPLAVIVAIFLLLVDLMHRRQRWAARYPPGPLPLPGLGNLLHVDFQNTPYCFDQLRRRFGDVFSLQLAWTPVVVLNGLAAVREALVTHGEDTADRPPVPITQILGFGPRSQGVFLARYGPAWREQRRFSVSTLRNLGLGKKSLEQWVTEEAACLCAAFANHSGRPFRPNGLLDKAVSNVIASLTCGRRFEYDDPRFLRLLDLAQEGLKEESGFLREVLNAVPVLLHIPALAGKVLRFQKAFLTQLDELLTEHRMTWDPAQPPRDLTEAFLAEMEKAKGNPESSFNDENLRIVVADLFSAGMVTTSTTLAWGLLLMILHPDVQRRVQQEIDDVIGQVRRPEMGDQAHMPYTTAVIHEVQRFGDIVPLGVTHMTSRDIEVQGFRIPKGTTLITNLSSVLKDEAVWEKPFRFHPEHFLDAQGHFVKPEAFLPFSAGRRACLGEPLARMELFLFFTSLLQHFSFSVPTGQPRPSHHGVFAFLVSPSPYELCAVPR

CC(C)(O)c1ccc(-c2cnc(C(C)(C)O)c(N)c2)cc1N [Compound 3]
clearance ([1]; Day 1): 7.11 mL/min/kg | AUC ([1]; Day 1, read-out: Area under the concentration-time curve AUC): 156 µM·h | half-life ([1]; Day 1, read-out: Half-time T1/2 (converted)): 147 min | clearance ([1]; Day 5): 9.04 mL/min/kg | AUC ([1]; Day 5, read-out: Area under the concentration-time curve AUC): 123 µM·h | half-life ([1]; Day 5, read-out: Half-time T1/2 (converted)): 163 min | clearance [2]: 6.2 mL/min/kg | AUC ([2]; read-out: Area under the concentration-time curve AUC): 9.16 µM·h | half-life ([2]; read-out: Half-time T1/2 (converted)): 229 min | percentage content of complexed products at 254 nm ([3]; Time 10 min): 3.265% | percentage content of complexed products at 254 nm ([3]; Time 100 min): 10.569% | percentage content of complexed products at 254 nm ([3]; Time 200 min): 17.191% | percentage content of complexed products at 254 nm ([3]; Time 300 min): 22.182% | Area under the curve AUC ([3]; nonanal 1.0 eq, compound 1.0 eq, 20-23° C., 10-300 min, HPLC 254 nm): 3979 min. Conversion | Slope (linear equation of percentage content of complexed products vs time) ([3]; nonanal 1.0 eq, compound 1.0 eq, 20-23° C., 10-300 min, HPLC 254 nm, in %/min): 0.0652 | IC50 [4]: > 50 µM | entry into the cornea by eye drops ([5]; SD rats, eye drops, result in words): could enter the cornea by eye drops | concentration at 1 h ([5]; male, Sprague-Dawley (SD), rat, cornea, topical, eye drops 5 mg/mL, 1 h, read-out: Corneal Concentration): 1800 nM | concentration at 4 h ([5]; male, Sprague-Dawley (SD), rat, cornea, topical, eye drops 5 mg/mL, 4 h, read-out: Corneal Concentration): 581 nM | Kp ([5]; male, Sprague-Dawley (SD), rat, cornea/plasma, topical, 5 mg/mL, eye drops, statement in the conclusion, no time point, read-out: ratio of cornea/plasma concentrations): > 10 | Kp at 1 h ([5]; male, Sprague-Dawley (SD), rat, cornea/plasma, topical, eye drops 5 mg/mL, 1 h, read-out: Corneal Concentration/Plasma Concentration C/P ratio): 14.3 | Kp at 4 h ([5]; male, Sprague-Dawley (SD), rat, cornea/plasma, topical, eye drops 5 mg/mL, 4 h, read-out: Corneal Concentration/Plasma Concentration C/P ratio): 16.6 | concentration at 1 h ([5]; male, Sprague-Dawley (SD), rat, plasma, topical, eye drops 5 mg/mL, 1 h, read-out: Plasma Concentration): 162 nM | concentration at 4 h ([5]; male, Sprague-Dawley (SD), rat, plasma, topical, eye drops 5 mg/mL, 4 h, read-out: Plasma Concentration): 43.8 nM | IC50 [6]: > 50 µM | IC50 [7]: > 50 µM
